These results are taken from the METLIN SMRT retention time set (Domingo-Almenara et al. 2019).

This data set is described as follows: gradient 5% acetonitrile 3 min, to 50% in 2 min, to 85% in 15 min, held 3 min, 100 µL/min. As to conditions: column: Zorbax Extend-C18 2.1 x 50 mm; eluents: water / acetonitrile, 0.1% formic acid. An outline of the steps:
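Standards, all pure, were combined into mixtures of ~100 molecules and run at 100 μL/min on a Zorbax Extend-C18 column (2.1 × 50 mm, 1.8 μm) with water and acetonitrile, each containing 0.1% formic acid. A coupled quadrupole time-of-flight mass spectrometer operated in positive and negative ionization mode. Retention time values come from computationally picked adduct peaks, each inspected manually.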
`COc1cc(NC(=O)C2CCCN(c3nnc4ccc(Cl)cn34)C2)cc(OC)c1OC` (stereo not given) registered an RP-LC retention time of 734 s.
The molecule `O=C(Cc1cccs1)NC1CCN(c2nnc3ccc(Cl)cn23)CC1` yielded an RP-LC retention time of 596 s.
Then `CC(=O)Nc1cc2c(cc1Sc1ccccc1Cl)n(C)c(=O)n2C`, with 781 s; and `CCOC(=O)C1=C(CNC2CCCCC2)NC(=O)NC1c1ccc(C)cc1` (stereo not given), with 662 s; and `CCOCCCNC(=O)C1CCCN(c2ccc(=O)n(-c3ccc(F)cc3)n2)C1` (stereo not given), with 697 s.
Turning to `Cc1ccc(CNC(=O)Cn2ccc3sccc3c2=O)cc1`, the RP-LC retention time worked out at 740 s.
As to `CCc1nnc(-c2cc(C)n(CC(=O)Nc3ccc(Cl)cc3F)c2C)o1`, the RP-LC retention time amounted to 866 s.
For the molecule `CCC(=O)c1cn(CC(=O)NC(C)c2ccc3c(c2)OCCCO3)c2ccccc12` (stereo not given), the RP-LC retention time was 848 s.
Regarding `COc1cccc(N2CCN(C(=O)C3CCN(c4cnc5nccnc5c4)CC3)CC2)c1`, the RP-LC retention time came to 728 s.
Then `Cc1ccnc(NS(=O)(=O)c2ccc(NC(=O)c3nc(-c4cnccn4)no3)cc2)n1`, with 608 s.
On to `O=c1c2ccccc2c(-c2nc(-c3cccnc3)no2)cn1-c1ccccc1`, for which the RP-LC retention time is 1010 s.
`Cn1cc(CCN2CCC(C(=O)NC3CCCCCC3)CC2)c2cccnc21` yielded an RP-LC retention time of 616 s.
`Cn1nnc2cc(CNC(=O)c3cccc(Cl)c3)ccc21` gave an RP-LC retention time of 715 s.
`Cc1ccc(NC(=O)N(C)CCc2noc(COc3cccc(C)c3)n2)cc1` had an RP-LC retention time of 972 s.
As for `O=C(Nc1cccn2c(C3CCC3)nnc12)c1ccco1`, the RP-LC retention time was found to be 696 s.
`Cc1nn(Cc2ccc(C(=O)NC3CC3)cc2)c(C)c1S(=O)(=O)N1CCCCC1` gave an RP-LC retention time of 765 s.
As to `O=C(Cn1c(=O)c2cccn2c2ccc(F)cc21)N1CCC(N2CCCCC2)CC1`, the RP-LC retention time turned out to be 606 s.
In the case of `COc1ccc(-c2nc(Cn3ccn4nc(-c5ccc6c(c5)OCO6)cc4c3=O)c(C)o2)cc1`, the RP-LC retention time was found to be 1100 s.
Turning to `CCc1ccccc1NC(=O)Cc1csc2nc(-c3ccc(C)c(C)c3)cn12`, the RP-LC retention time was 928 s.
Then `COCCn1c(Cc2cccn2C)nnc1SCC(=O)N1CCCc2ccccc21`, with 809 s; and `Cc1cc2ccccc2n1CCNC(=O)C(=O)c1cn(CC(=O)N2CCCC2)c2ccccc12`, with 1010 s.
`COc1cccc(CN2CCc3nc(N4CCCC4)ncc3C2)c1`: the RP-LC retention time stood at 600 s.
`c1ccc(Cn2cnnc2C2CCCN(Cc3cccs3)C2)cc1` (stereo not given) came in with an RP-LC retention time of 592 s.
In the case of `CCOc1cccc(CN2C[C@@H]3C(=O)N(CCCN4CCCC4=O)C(=O)[C@@H]3C2)c1`, the RP-LC retention time was determined as 617 s.
In turn, `CCNC(=O)C1CCCN(c2nc3ncn(CC(=O)Nc4ccc(C(C)C)cc4)c(=O)c3s2)C1` (stereo not given) displayed an RP-LC retention time of 759 s.
In the case of `COc1ccc(OC)c(NC(=O)N(C)Cc2nc3cc(C(=O)N(C)C)ccc3n2C)c1`, the RP-LC retention time is 605 s.
Then `COc1ccc(/C=C\c2onc(C)c2NC(C)=O)cc1S(=O)(=O)N1CCN(c2ccccn2)CC1`, with 612 s.
Then `CN(C)[C@@H]1CN(C(=O)c2ccc(Cn3cncn3)o2)CC[C@@H]1CO`, with 518 s; and `CCc1ccc(Oc2cc(N3CCC(C(=O)NCCCOC(C)C)CC3)ncn2)cc1`, with 903 s; and `CCNC(=O)C1CCN(S(=O)(=O)c2cc(C(=O)N3CCCCCC3)cs2)CC1`, with 717 s.
Then `Cn1cccc1C(=O)C(=O)Nc1ccccc1C(F)(F)F`, with 1060 s.
For `O=c1c2cc3c(cc2nc(SCc2nc(-c4ccccc4)no2)n1Cc1ccccc1)OCO3`, the RP-LC retention time came out at 1240 s.
The molecule `CCC(C)NS(=O)(=O)c1cc(-c2cc(C(F)(F)F)on2)sc1C` (stereo not given) returned an RP-LC retention time of 1140 s.
The molecule `O=C(NCc1csc(-c2cccs2)n1)C1CCN(C(=O)CCc2ccccc2)CC1` came in with an RP-LC retention time of 805 s.
Turning to `COc1ccccc1N1CCN(c2cc(SCC(=O)Nc3c(C)cccc3C)ncn2)CC1`, the RP-LC retention time turned out to be 958 s.
The same measure for `C[n+]1ccc(Nc2ccc(NC(=O)c3ccc(Nc4cc[n+](C)c5ccc([N+](=O)[O-])cc45)cc3[N+](=O)[O-])cc2)cc1`: 1080 s; for `Cc1cccc(N2C(=O)CN(Cc3ccccc3Cl)[C@H]3CS(=O)(=O)C[C@H]32)c1`: 917 s; for `COc1ccccc1NC(=O)Cn1cnc2onc(C)c2c1=O`: 748 s.
The same measure for `CCCc1noc(-c2cccnc2N2CCCN(Cc3ccccc3F)CC2)n1`: 701 s; for `Cc1cc(C)cc(NC(=O)Cc2c(C(=O)O)c(C)cn2C)c1`: 739 s; for `CC1CC(C)OP(=O)(OCCC#N)O1` (stereo not given): 650 s.
In turn, `CCc1nccn1Cc1noc(-c2cccc(C)c2)n1` had an RP-LC retention time of 658 s.
With `Cc1nn2c(CNC(=O)c3ccccc3C(F)(F)F)c(C)nc2s1`, the RP-LC retention time came to 638 s.
Then `Cc1ccc(NC(=O)N2CCCC(C)(C(=O)NCc3ccccc3C)C2)cc1C` (stereo not given), with 978 s.
The molecule `CNC(=O)Nc1cccn2nc(-c3ccccc3)nc12` yielded an RP-LC retention time of 702 s.
Then `CCCCNC(=O)c1cc(NC(=O)CC)cc2nc(C)ccc12`, with 595 s; and `Cc1ccc2c(c1)N(S(C)(=O)=O)CCC(C(=O)Nc1cccc(Br)c1)O2` (stereo not given), with 1060 s; and `N#CCn1nc2n(c1=O)CCN(C(=O)c1cc(C3CC3)[nH]n1)CC2`, with 595 s.
Then `CN(C1CCc2nn(C)c(=O)n2CC1)S(=O)(=O)c1cccc2cccnc12` (stereo not given), with 671 s.
Then `CNC(=O)C1CCCN(c2nc3ncn(CC(=O)Nc4ccccc4)c(=O)c3s2)C1` (stereo not given), with 634 s; and `CC1CN=C2C=C(N3CCN(S(=O)(=O)Cc4cccc(Cl)c4)CC3)N=CN21` (stereo not given), with 627 s.
In the case of `CCN1c2ccc(C)cc2C(=O)NC12CCN(C(=O)Cc1cccc(OC)c1)CC2`, the RP-LC retention time amounted to 802 s.
Molecule `O=C(COc1cccc(Cl)c1)Nc1nc(-c2ccccc2)cs1` registered an RP-LC retention time of 1110 s.
`c1ccc2sc(N3CCN(Cc4ccc5c(c4)OCO5)CC3)nc2c1` yielded an RP-LC retention time of 731 s.
The same measure for `CCn1c(C)c(CCC(=O)NCC2CCCO2)c(=O)n2nc(-c3ccccc3)nc12` (stereo not given): 691 s; for `CC(C)Cn1c(=O)c2ccccc2n(Cc2nc(-c3cccc(C(F)(F)F)c3)no2)c1=O`: 1030 s; for `Cc1ccc(CNC(=O)c2cccc3c2CCN3C(=O)c2ccc(F)cc2)o1`: 889 s.
Then `CCN(C(=O)Cn1nc(C(=O)N2CCCCC2)c2ccccc21)c1cccc(C)c1`, with 1010 s; and `CCCn1cc(CCNS(=O)(=O)c2cccc(C)c2)c2cccnc21`, with 866 s; and `CCCCn1cc(S(=O)(=O)Nc2ccc(OC)cc2)c2cccnc21`, with 896 s.
Molecule `O=C(CCC1CCCC1)N1CCc2c([nH]c3ccccc23)C1c1ccc(Cl)cc1` (stereo not given) gave an RP-LC retention time of 1060 s.
The same measure for `COCCNC(=O)C(=O)NCCC(O)C(C)(C)C` (stereo not given): 614 s; for `O=C(Nc1ccccc1-c1nc2ccccc2[nH]1)c1cc2ccccc2o1`: 1080 s.
Then `NC(=O)OCCCc1ccccc1`, with 817 s.
The same measure for `CC(C)N1CC(c2nc(-c3ccccc3)no2)C2(CCCC2)C1` (stereo not given): 737 s; for `Cc1ccc2c(Nc3ccc(C)c(F)c3)c(C(=O)N3CCOCC3)cnc2n1`: 599 s; for `Cc1c2c(nn1-c1ccc(SCc3ccccc3Cl)nn1)CCC2`: 1380 s.
Regarding `COc1cccc(CN2CN(c3ccc(C)cc3)c3ncccc3S2(=O)=O)c1`, the RP-LC retention time stood at 1110 s.
The same measure for `CCN(CC)C(=O)COc1ccc(NC(=O)C2CC2)cn1`: 664 s; for `O=C(Cn1cccc1-c1nnc(C2CC2)o1)N1CCN(c2ccccc2)CC1`: 821 s.
The same measure for `Cc1cccc(NC(=O)CN2C(=O)C(C(=O)N3CCCC3)Sc3ccccc32)c1C` (stereo not given): 945 s; for `Cc1nnc2n1CCC(NC(=O)CC1=CCCCC1)CC2` (stereo not given): 605 s; for `NCCNc1ccc(NCCN)c2c1C(=O)c1ccncc1C2=O`: 564 s.
As for `Cc1ncsc1CN1CCC2(CC1)CC(Cc1ccc(F)cc1)CCO2` (stereo not given), the RP-LC retention time was 556 s.
The molecule `O=S(=O)(Nc1ccc(Nc2ccc(-n3cccn3)nn2)cc1)c1ccc(F)cc1F` registered an RP-LC retention time of 788 s.
For the molecule `CC(C)(C)c1cc(C(=O)NCc2ccccc2)nc2ccnn12`, the RP-LC retention time was found to be 1140 s.
With `CCOc1cc(=O)n2c(c1C(=O)OCc1ccccc1F)CCCCC2`, the RP-LC retention time worked out at 914 s.
The same measure for `Cc1cc(C)cc(C(=O)N2CCN(c3nc(C)cc(N4CCCCC4)n3)CC2)c1`: 765 s; for `Cc1c(S(=O)(=O)N2CCCC(C)C2)c(C)n(C)c1C(=O)N1CCc2ccccc21` (stereo not given): 1070 s; for `Cc1ccc(CNC(=O)C2(C)CN(S(C)(=O)=O)CC(=O)N2c2ccccc2F)cc1` (stereo not given): 804 s.
